Data taken from ChEMBL document CHEMBL6177936, “Stachydrine, a pyrrole alkaloid with promising therapeutic potential against metabolic syndrome and associated organ dysfunction” (RSC Med Chem, 2024).

Experiments:
[1] = Cmax in Wistar rat at 166.3 mg/kg, po; format: ADME, organism-based; details: in vivo
[2] = Half life in Wistar rat at 166.3 mg/kg, po; format: ADME, organism-based; details: in vivo
[3] = MRT (0 to infinity) in Wistar rat at 166.3 mg/kg, po; format: ADME, organism-based; details: in vivo
[4] = AUC (0 to infinity) in Wistar rat at 166.3 mg/kg, po; format: ADME, organism-based; details: in vivo
[5] = Tmax in Wistar rat at 166.3 mg/kg, po; format: ADME, organism-based; details: in vivo
[6] = AUC (0 to infinity) in Sprague-Dawley rat at 9.86 mg/kg, po by UPLC-MS/MS analysis; format: ADME, organism-based; details: in vivo
[7] = MRT (0 to infinity) in Sprague-Dawley rat at 9.86 mg/kg, po by UPLC-MS/MS analysis; format: ADME, organism-based; details: in vivo
[8] = Cmax in Sprague-Dawley rat at 9.86 mg/kg, po by UPLC-MS/MS analysis; format: ADME, organism-based; details: in vivo
[9] = Half life in Sprague-Dawley rat at 9.86 mg/kg, po by UPLC-MS/MS analysis; format: ADME, organism-based; details: in vivo
[10] = Tmax in Sprague-Dawley rat at 9.86 mg/kg, po by UPLC-MS/MS analysis; format: ADME, organism-based; details: in vivo
[11] = Cmax in CSBS-PD induced Sprague-Dawley rat at 15.28 mg/kg, po incubated for 24 hrs by LC-MS/MS analysis; format: ADME, organism-based; details: in vivo
[12] = Half life in CSBS-PD induced Sprague-Dawley rat at 15.28 mg/kg, po incubated for 24 hrs by LC-MS/MS analysis; format: ADME, organism-based; details: in vivo
[13] = Tmax in CSBS-PD induced Sprague-Dawley rat at 15.28 mg/kg, po incubated for 24 hrs by LC-MS/MS analysis; format: ADME, organism-based; details: in vivo
[14] = MRT(infinity) in CSBS-PD induced Sprague-Dawley rat at 15.28 mg/kg, po incubated for 24 hrs by LC-MS/MS analysis; format: ADME, organism-based; details: in vivo
[15] = AUC(infinity) in CSBS-PD induced Sprague-Dawley rat at 15.28 mg/kg, po incubated for 24 hrs by LC-MS/MS analysis; format: ADME, organism-based; details: in vivo
[16] = AUC(0 to infinity) in KYDS rat at 1 g/Kg, IG by LC-MS/MS analysis; format: ADME; details: in vivo, po, 1000 mg/kg
[17] = Half life in KYDS rat at 1 g/Kg, IG by LC-MS/MS analysis; format: ADME; details: in vivo, po, 1000 mg/kg
[18] = Tmax in KYDS rat at 1 g/Kg, IG by LC-MS/MS analysis; format: ADME; details: in vivo, po, 1000 mg/kg
[19] = Cmax in KYDS rat at 1 g/Kg, IG by LC-MS/MS analysis; format: ADME; details: in vivo, po, 1000 mg/kg
[20] = MRT (0 to infinity) in KYDS rat at 1 g/Kg, IG by LC-MS/MS analysis; format: ADME; details: in vivo, po, 1000 mg/kg
[21] = Apparent oral clearance in KYDS rat at 1 g/Kg, IG by LC-MS/MS analysis; format: ADME; details: in vivo, 1000 mg/kg
[22] = AUC (0 to infinity) in Wistar rat at 10 mg/kg, iv measured for 24 hrs by LC-MS/MS analysis; format: ADME, organism-based; details: in vivo
[23] = Cmax in Wistar rat at 10 mg/kg, iv measured for 24 hrs by LC-MS/MS analysis; format: ADME, organism-based; details: in vivo
[24] = Clearance in Wistar rat at 10 mg/kg, iv measured for 24 hrs by LC-MS/MS analysis; format: ADME, organism-based; details: in vivo
[25] = Half life in Sprague-Dawley rat at 15.28 mg/kg, po incubated for 24 hrs by LC-MS/MS analysis; format: ADME, organism-based; details: in vivo

- Cmax [1]: 1610 ng/mL
- half-life [2]: 98.4 min
- MRT inf [3]: 1.67 h
- AUC(0-inf) [4]: 2900 ng·h/mL
- Tmax [5]: 45 min
- AUC(0-inf) [6]: 2800 ng·h/mL
- MRT inf [7]: 4.44 h
- Cmax [8]: 673 ng/mL
- half-life [9]: 227 min
- Tmax [10]: 1.5 h
- Cmax [11]: 14000 ng/mL
- half-life [12]: 331 min
- Tmax [13]: 2.83 h
- MRT inf [14]: 9.97 h
- AUC [15]: 99.24 µg·h/mL
- AUC [16]: 1279.31 µg/L/h
- half-life [17]: 395 min
- Tmax [18]: 1.08 h
- Cmax [19]: 135 ng/mL
- MRT inf [20]: 9.21 h
- CL/F [21]: 0.06 L/h/kg
- AUC [22]: 12026.7 h/ng/mL
- Cmax [23]: 6400 ng/mL
- clearance [24]: 0.93 L/h/kg
- half-life [25]: 233 min
Compound: C[N+]1(C)CCC[C@H]1C(=O)[O-]
